Laboratory results from patent US7947697B1, “8-(3-pentylamino)-2-methyl-3-(2-chloro-4-methoxyphenyl)-6,7-dihydro-5H-cyclopenta[d] pyrazolo[1,5-a]pyrimidine methanesulfonate as a CRF antagonist” (Ono Pharmaceutical Co., Ltd., priority 2003, dated 2011).
Entries after “also recorded” stand apart in the source; their conditions may differ.

Columns and labels:
[1] = Thermal stability by differential scanning calorimetry (DSC); assay type: physicochemical; settings: for thermal stability: DSC chart / heat
From the text: On the other hand, DSC chart of 8-(3-pentylamino)-2-methyl-3-(2-chloro-4-methoxyphenyl)-6,7-dihydro-5H-cyclopenta[d]pyrazolo[1,5-a]pyrimidine hydrochloride described in WO 02/053565 is shown in FIG. 2.
It was very surprising that the difference of the salt influenced heat stability like this greatly, and it was not easily expected.
(3) Differential Scanning Calorimeter (DSC)

[2] = target: T1, human CRF1 receptor (Homo sapiens, UniProt P34998); assay: Binding assay ([125I] h/r CRF, cell membrane fraction); settings: membrane fraction of CHO-K1 cells expressing human CRF1 receptor; [125I] h/r CRF 0.25 nM; 2 hours, room temperature; read-out: affinity on CRF1 receptor (IC50)
T1 construct: expressed in transfected cells; F-12 medium fits
T1 sequence (P34998 24-415): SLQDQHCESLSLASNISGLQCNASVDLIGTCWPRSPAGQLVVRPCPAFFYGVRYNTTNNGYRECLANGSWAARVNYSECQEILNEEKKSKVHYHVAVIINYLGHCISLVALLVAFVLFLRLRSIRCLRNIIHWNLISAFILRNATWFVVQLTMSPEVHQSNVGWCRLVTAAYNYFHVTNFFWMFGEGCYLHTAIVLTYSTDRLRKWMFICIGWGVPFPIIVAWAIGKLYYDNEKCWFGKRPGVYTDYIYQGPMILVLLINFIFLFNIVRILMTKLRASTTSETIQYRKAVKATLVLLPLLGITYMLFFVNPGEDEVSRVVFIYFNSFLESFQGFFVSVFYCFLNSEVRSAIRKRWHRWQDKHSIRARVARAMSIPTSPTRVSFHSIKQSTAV
Experimental: Cell Membrane Preparation
After a cell line expressing a human CRF1 receptor (expressed cell line: CHO-K1 cells) was cultured to reach confluence, the cells were harvested with a scraper. Harvested cells were washed twice with PBS before being suspended in a binding assay buffer (Tris-HCl (50 mM, pH 7.0), EDTA (2 mM, pH 8.0), and MgCl2 (10 mM)) cooled by ice. Suspended cells were homogenized with a Downs-type homogenizer and subjected to centrifugation at 10,000 g to collect the membrane fraction. The harvested cell membrane fraction was re-suspended with a small quantity of the binding assay buffer, and further diluted with said buffer to 1 mg/mL. The membrane fraction thus obtained was used for binding assay.
Fifty μL of [^125I] h/r CRF prepared to 0.5 nM with binding assay buffer was added to siliconized 1.5 mL tubes. Each of 1 μL of compounds diluted in appropriate multiples, DMSO (for total binding use) and h/r CRF solution (100 μM, for the non-specific binding use) was added to the tubes. Samples of 50 μL each of the membrane fraction preparation were added to the tubes to initiate the reaction (final concentration of [^125I] h/r CRF: 0.25 nM), then the mixtures were incubated for 2 hours at room temperature. […] Radioactivity values of the respective tubes were measured with a γ-counter. […]

[3] = target: T1, human CRF1 receptor; assay: Receptor antagonistic activity (cyclic AMP assay); assay type: cell-based; settings: cells expressing human CRF1 receptor; human/rat CRF-stimulated intracellular cyclic AMP; read-out: antagonist activity on CRF receptor (IC50)
Experimental: Receptor Antagonistic Activity (Cyclic AMP Assay):
A cell line expressing a human CRF1 receptor was cultured using 10% bovine embryo serum and 1% F-12 nutrient mixture containing antibiotics and antifungal under 37° C., 5% carbonic anhydride, 95% air. On the day before a measurement of cyclic AMP, the cell seed to 96-well plate to be 1×10^4 cell/well. On the measurement day, the cell was washed twice with F-12 nutrient mixture, and F-12 nutrient mixture/1 mM 3-isobutyl-1-methylxanthin (assay medium) (178 μL) was added to each well. After they were incubated for 10 minutes at 37° C., each of various concentrated solutions of the test compound (2 μL) was added, or DMSO (2 μL) was added to CRF group and blank group. After they were incubated for 15 minutes at 37° C., 10 nM assay medium containing human/rat CRF (20 μL) was added to the test compound group and CRF group. To the blank group, an assay medium containing 0.00001% acetic acid (20 μL) was added. Furthermore, they were incubated for 15 minutes at 37° C. […] The cumulative dosage of intracellular cyclic AMP was measured by Biotrak enzyme immunoassay system (Amersham Biosciences). […] The IC50 values calculated by nonlinear regression analysis with logarithm concentrate of the compound as the autonomous variable and cyclic AMP cumulative dosage as an induced variable

[4] = Solubility; assay type: physicochemical
[5] = Disposition
[6] = Toxicity
[7] = Stability of the crystal for humidity and light; assay type: physicochemical

C1=Cc2cccc(OC[C@H]3CNCCO3)c2C1.O=S(=O)(O)c1ccccc1 [benzenesulfonate]
thermal stability [1]: superior in thermal stability

CC1(C)C2CCC1(CS(=O)(=O)O)C(=O)C2.CCC(CC)Nc1c2c(nc3c(-c4ccc(OC)cc4Cl)c(C)nn13)CCC2 [camphorsulfonate (D, L, or DL)]
thermal stability [1]: superior in thermal stability

CCC(CC)Nc1c2c(nc3c(-c4ccc(OC)cc4Cl)c(C)nn13)CCC2 [compound (1), 8-(3-pentylamino)-2-methyl-3-(2-chloro-4-methoxyphenyl)-6,7-dihydro-5H-cyclopenta[d]pyrazolo[1,5-a]pyrimidine methanesulfonate]
IC50 [2]: < 1000 nM | IC50 [3]: < 1000 nM | thermal stability ([1]; listed as the methanesulfonate compound, methanesulfonate): superior thermal stability | thermal stability ([1]; methanesulfonate): steady; also recorded: superior in thermal stability | solubility [4]: remarkably superior | disposition [5]: remarkably superior | toxicity [6]: very low | stability for humidity [7]: steady | stability for light [7]: steady

CCC(CC)Nc1c2c(nc3c(-c4ccc(OC)cc4Cl)c(C)nn13)CCC2.Cl [the hydrochloride compound, 8-(3-pentylamino)-2-methyl-3-(2-chloro-4-methoxyphenyl)-6,7-dihydro-5H-cyclopenta[d]pyrazolo[1,5-a]pyrimidine hydrochloride, reference compound]
thermal stability ([1]; hydrochloride): unstable compound to heat | thermal stability ([1]; listed as 8-(3-pentylamino)-2-methyl-3-(2-chloro-4-methoxyphenyl)-6,7-dihydro-5H-cyclopent, hydrochloride): poor | temperature at which the DSC curve changed significantly ([1]; DSC chart FIG. 2, then changed gradually after over 50° C.): ~40 °C

CCC(CC)Nc1c2c(nc3c(-c4ccc(OC)cc4Cl)c(C)nn13)CCC2.Cc1ccc(S(=O)(=O)O)cc1 [tosylate, 8-(3-pentylamino)-2-methyl-3-(2-chloro-4-methoxyphenyl)-6,7-dihydro-5H-cyclopenta[d]pyrazolo[1,5-a]pyrimidine tosylate]
thermal stability [1]: superior in thermal stability
